Measured values taken from patent US20230150929A1, “SELECTIVE NON-CYCLIC NUCLEOTIDE ACTIVATORS FOR THE CAMP SENSOR EPAC1” (The Board of Regents of The University of Texas System, priority 2020, published 2023).

Tests used:
EPAC1 = biological target: T1, EPAC1 (Homo sapiens, UniProt O95398); assay: Protein stability of EPAC1 in cells following long-term exposure; assay type: cell-based; design: expressed in transfected cells; host or cells: U2OS cells (from Professor Holger Rehmann, University of Utrecht); settings: compared with I942
T1 sequence (O95398 1-923): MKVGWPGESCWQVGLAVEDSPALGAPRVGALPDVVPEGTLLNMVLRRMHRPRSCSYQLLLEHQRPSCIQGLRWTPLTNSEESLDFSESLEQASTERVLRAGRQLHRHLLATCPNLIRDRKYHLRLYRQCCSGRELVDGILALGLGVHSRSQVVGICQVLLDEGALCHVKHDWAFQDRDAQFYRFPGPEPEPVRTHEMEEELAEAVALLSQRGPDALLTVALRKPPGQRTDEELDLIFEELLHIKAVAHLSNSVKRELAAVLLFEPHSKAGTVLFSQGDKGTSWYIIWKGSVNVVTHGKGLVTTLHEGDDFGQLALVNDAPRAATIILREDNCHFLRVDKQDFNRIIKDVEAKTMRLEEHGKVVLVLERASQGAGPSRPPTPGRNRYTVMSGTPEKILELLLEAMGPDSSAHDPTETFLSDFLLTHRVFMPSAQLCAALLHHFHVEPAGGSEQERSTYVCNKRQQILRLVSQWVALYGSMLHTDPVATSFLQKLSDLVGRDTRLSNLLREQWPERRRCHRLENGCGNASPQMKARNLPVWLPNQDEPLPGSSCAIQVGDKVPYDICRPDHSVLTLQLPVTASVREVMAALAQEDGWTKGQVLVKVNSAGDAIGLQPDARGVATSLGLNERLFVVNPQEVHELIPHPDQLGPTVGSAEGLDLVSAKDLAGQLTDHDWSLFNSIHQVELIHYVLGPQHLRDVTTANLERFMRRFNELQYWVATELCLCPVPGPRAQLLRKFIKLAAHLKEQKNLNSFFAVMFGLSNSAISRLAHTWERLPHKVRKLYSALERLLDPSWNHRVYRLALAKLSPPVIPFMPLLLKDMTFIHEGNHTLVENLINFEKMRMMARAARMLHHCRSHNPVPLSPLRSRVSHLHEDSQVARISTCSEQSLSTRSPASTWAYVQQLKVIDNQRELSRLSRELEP

EPAC1-CNBD = biological target: T2, EPAC1-CNBD (Homo sapiens, UniProt O95398); assay: 8-NBD-cAMP competition binding assay, EPAC1-CNBD; settings: for RFI (%) (relative fluorescence intensity), Table 4: compound 10 µM, EPAC1-CNBD 0.8 µM, 8-NBD-cAMP 62.5 nM, mean ± SEM, lower RFI = stronger binding; for IC50: read-out: IC50 for the EPAC1-CNBD, dose-response, FIG. 3; for IC50 values as EPAC1 binders (in words): summary statement; for EPAC1 binding potency / affinity in words: SAR comment on RFI, mostly relative to 3 or 9a
T2 sequence (O95398 169-318 isoform O95398-3): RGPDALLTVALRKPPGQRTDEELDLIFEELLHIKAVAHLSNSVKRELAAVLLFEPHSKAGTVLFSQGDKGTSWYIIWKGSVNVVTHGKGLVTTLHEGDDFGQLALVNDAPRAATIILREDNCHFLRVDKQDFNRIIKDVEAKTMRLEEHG

EPAC1-ΔDEP (aa. 149-881) = biological target: T3, EPAC1-ΔDEP (aa. 149-881) (Homo sapiens, UniProt O95398); assay: 8-NBD-cAMP competition binding assay, EPAC1-ΔDEP; settings: eleven-point dose-response 1-100 µM; mean ± SEM
T3 construct: EPAC1-ΔDEP (149-881); GST (N); made in house; host or cells: Escherichia coli BL21 Star (DE3)
T3 sequence (O95398 149-881 isoform O95398-3): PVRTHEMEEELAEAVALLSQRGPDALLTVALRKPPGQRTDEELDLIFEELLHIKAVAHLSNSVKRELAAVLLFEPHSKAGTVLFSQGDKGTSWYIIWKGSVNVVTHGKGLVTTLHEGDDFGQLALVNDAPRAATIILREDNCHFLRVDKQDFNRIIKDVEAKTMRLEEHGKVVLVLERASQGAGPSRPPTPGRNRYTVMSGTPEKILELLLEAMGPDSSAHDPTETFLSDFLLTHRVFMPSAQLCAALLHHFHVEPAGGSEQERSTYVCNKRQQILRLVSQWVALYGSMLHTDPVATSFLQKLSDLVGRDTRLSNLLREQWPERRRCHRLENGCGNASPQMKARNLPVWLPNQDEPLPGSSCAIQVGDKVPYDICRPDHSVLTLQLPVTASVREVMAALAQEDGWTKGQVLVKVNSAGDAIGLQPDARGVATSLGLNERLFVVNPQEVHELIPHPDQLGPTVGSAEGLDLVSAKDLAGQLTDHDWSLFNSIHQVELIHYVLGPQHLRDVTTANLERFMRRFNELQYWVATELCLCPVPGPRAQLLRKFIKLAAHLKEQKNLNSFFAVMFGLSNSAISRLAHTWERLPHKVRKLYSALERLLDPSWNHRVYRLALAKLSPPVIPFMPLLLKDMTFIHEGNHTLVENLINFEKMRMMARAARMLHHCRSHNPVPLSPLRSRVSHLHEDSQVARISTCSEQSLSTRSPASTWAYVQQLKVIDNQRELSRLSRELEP
Description: Recombinant Protein Purification.
8-NBD-cAMP Competition Binding Assay.

over 40 GPCR targets = assay: Counter screening over a panel of GPCR targets; assay type: binding; settings: panel of over 40 GPCR proteins

RFI (%) (relative fluorescence intensity), Table 4 (EPAC1-CNBD)	IC50 (EPAC1-CNBD)	IC50 values as EPAC1 binders (in words) (EPAC1-CNBD)	IC50 (EPAC1-ΔDEP (aa. 149-881))	EPAC1 binding potency / affinity in words (EPAC1-CNBD)	SMILES	tolerability in terms of protein stability of EPAC1 in cells (EPAC1)	off-target effects towards GPCR proteins (over 40 GPCR targets)
7 ± 1%	900 nM	low micromolar to sub-micromolar	600 nM		COc1ccc2ccc(OCC(=O)NS(=O)(=O)c3ccc(N)cc3OC)cc2c1 [Compound 25n, N-((4-Amino-2-methoxyphenyl)sulfonyl)-2-((7-methoxynaphthalen-2-yl)oxy)acetamide]	better tolerated	none of them displays the potential off-target effects
14 ± 3%	2200 nM	low micromolar to sub-micromolar	500 nM	significantly enhanced binding potency	COc1ccc2ccc(OCC(=O)NS(=O)(=O)c3ccc4ccccc4c3)cc2c1 [Compound 25q, 2-((7-Methoxynaphthalen-2-yl)oxy)-N-(naphthalen-2-ylsulfonyl)acetamide]		none of them displays the potential off-target effects
23 ± 4%	4800 nM	low micromolar to sub-micromolar	4900 nM	much more potent	COc1ccc(S(=O)(=O)NC(=O)COc2ccc3ccccc3c2)c(OC)c1 [Compound 25g, N-((2,4-Dimethoxyphenyl)sulfonyl)-2-(naphthalen-2-yloxy)acetamide]		
